The results in this text go back to article PMC4728427, “Mechanism of allosteric activation of TMEM16A/ANO1 channels by a commonly used chloride channel blocker” (British Journal of Pharmacology, 2016).

Where two headings read alike, the source gives them in different places.

The test has as its target T1, Mouse TMEM16A (Mus musculus, UniProt Q8BHY3).
T1 construct: expressed in transfected cells; host or cells: HEK-293T
T1 sequence (Q8BHY3 1-960): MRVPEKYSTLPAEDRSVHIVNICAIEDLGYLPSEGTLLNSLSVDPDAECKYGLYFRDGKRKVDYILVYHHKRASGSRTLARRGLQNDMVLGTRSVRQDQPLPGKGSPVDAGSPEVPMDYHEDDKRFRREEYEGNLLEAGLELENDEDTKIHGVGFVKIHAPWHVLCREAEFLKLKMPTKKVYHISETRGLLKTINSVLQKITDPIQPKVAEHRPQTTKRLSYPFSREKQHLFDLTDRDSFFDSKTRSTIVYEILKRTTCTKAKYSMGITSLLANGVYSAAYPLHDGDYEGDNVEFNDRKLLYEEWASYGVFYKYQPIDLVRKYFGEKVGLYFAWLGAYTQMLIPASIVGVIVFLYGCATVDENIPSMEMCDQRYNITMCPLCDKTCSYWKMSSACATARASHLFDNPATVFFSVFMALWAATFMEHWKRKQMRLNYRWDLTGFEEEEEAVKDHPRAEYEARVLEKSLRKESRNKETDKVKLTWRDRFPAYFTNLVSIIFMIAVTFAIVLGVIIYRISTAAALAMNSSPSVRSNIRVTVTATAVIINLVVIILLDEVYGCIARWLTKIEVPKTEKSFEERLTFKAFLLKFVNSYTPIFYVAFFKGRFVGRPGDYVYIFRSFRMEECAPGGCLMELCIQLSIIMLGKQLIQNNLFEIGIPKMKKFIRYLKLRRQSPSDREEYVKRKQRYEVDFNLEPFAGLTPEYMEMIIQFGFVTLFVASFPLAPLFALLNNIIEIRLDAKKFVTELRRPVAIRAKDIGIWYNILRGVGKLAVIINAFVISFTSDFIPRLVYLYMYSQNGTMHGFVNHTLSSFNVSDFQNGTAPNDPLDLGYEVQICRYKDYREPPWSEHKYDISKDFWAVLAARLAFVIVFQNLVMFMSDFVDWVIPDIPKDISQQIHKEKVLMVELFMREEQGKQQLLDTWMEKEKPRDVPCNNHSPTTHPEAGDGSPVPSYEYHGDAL
The test is described as follows: Whole-cell [A9C]ext-inhibition relationship (Hill and Woodhull fits), 12.5 μM [Ca2+]i. Type of test: cell-based. The procedure: Mouse TMEM16A (GenBank NM_178642) subcloned into pcDNA3.1 vector was used in this study (Alexander et al., 2013). HEK‐293T cells were cultured as previously described (Smith et al., 2013) and transfected with 0.5–1 μg of TMEM16A and 0.1 μg of CD8 constructs using Fugene HD (Promega, Madison, WI, USA) according to the manufacturer's instructions. Cells were used ~12–36 h after transfection. Transfected cells were visualized using the anti‐CD8 antibody‐coated beads method (Jurman et al., 1994).
The intracellular solution contained (mM) 130 CsCl, 10 EGTA, 1 MgCl2, 10 HEPES and 8 CaCl2 to obtain ~300 nM of [Ca^2+]i; pH was adjusted to 7.3 with NaOH. The intracellular solutions containing ~600 nM, ~1000 nM and ~12.5 μM [Ca^2+]i were obtained by replacing EGTA with equimolar H‐EDTA and by adding 2.1, 3.1 and 7.8 mM CaCl2 respectively. The extracellular solution contained (mM) 150 NaCl, 1 CaCl2, 1 MgCl2, 10 glucose, 10 D‐mannitol and 10 HEPES; pH was adjusted to 7.4 with NaOH. […] A9C was dissolved in DMSO (stock concentration, 300 mM); thus, the final concentration of DMSO was ≤1%. Aliquots of the stock solution were kept at −20° and used within 5 days.
The relationship between [A9C] and TMEM16A current inhibition was obtained by measuring the currents at the end of 250 ms V m steps from +20 to +120 mV in 20 mV increments elicited every 2 s from a holding V m of −70 mV. TMEM16A currents measured in the presence of A9C (I b) were normalized to currents measured in the absence of A9C (I 0) and plotted against [A9C]. The concentration–response curves obtained were fit with the Hill equation of the form: (1) Ib/Io=1/1+A9C/Ki^γ,
where K i is the apparent A9C dissociation constant from the inhibitory site and γ is the coefficient of cooperativity (Hill coefficient).
The relationships between the K i or K d and V m were fitted with the Woodhull equation (Woodhull, 1973): (3) Kx=Kx0exp−δxzFVm/RT.
The subscript ‘x’ stands for either ‘i’ or ‘d’. Thus, K i(0) or K d(0) are the apparent A9C dissociation constants from the inhibitory or activating site at 0 mV, z is the A9C electric valence (−1), δ i or δ d is the fraction of the V m sensed by A9C when bound to the inhibitory or activating site, F is Faraday's constant, R is the universal gas constant and T is the absolute temperature.
To investigate the precise mechanism by which extracellular A9C inhibits TMEM16A channels, macroscopic whole‐cell currents were recorded in the presence of 12.5 μM [Ca^2+]i and in response to 250 ms steps to various V m test pulse from a holding V m of −70 mV. The negative holding V m was used to prevent channel block before the test pulse was elicited. […] The time‐course of this decrease was described by a single‐exponential function characterized by a time constant τ B. The extent of the decrease in current was measured for various [A9C]ext and various V m test pulse and then plotted relative to the current measured in the absence of A9C (I 0) (Figure 3B). The γ values were close to 1 at each V m. In contrast, K i decreased as the V m was increased (Figure 3C). […] Thus, A9C appeared to block TMEM16A channels according to a Woodhull mechanism, consistent with a single A9C molecule blocking the channel pore.

With `O=C(O)c1c2ccccc2cc2ccccc12` [A9C, Anthracene‐9‐carboxylic acid], the Ki is, setting by setting: (12.5 μM [Ca2+]i (rounded in Discussion), read-out: K i(0)) about 300 µM; (12.5 μM [Ca2+]i, extracellular A9C, read-out: K i(0) (apparent dissociation constant from inhibitory site at 0 mV)) 322 ± 13 µM; (+80 mV, mouse TMEM16A (rounded in Discussion), read-out: K i) about 50 µM; (V m 20, 12.5 μM [Ca2+]i, [A9C]ext, unit inferred, read-out: K i (Hill fit of inhibition)) 198 ± 47 µM; (V m 40, 12.5 μM [Ca2+]i, [A9C]ext, unit inferred, read-out: K i (Hill fit of inhibition)) 113 ± 26 µM; (V m 60, 12.5 μM [Ca2+]i, [A9C]ext, unit inferred, read-out: K i (Hill fit of inhibition)) 68 ± 20 µM. In addition, the Ki by setting is: (V m 80, 12.5 μM [Ca2+]i, [A9C]ext, unit inferred, read-out: K i (Hill fit of inhibition)) 44 ± 10 µM; (V m 100, 12.5 μM [Ca2+]i, [A9C]ext, unit inferred, read-out: K i (Hill fit of inhibition)) 31 ± 12 µM; (V m 120, 12.5 μM [Ca2+]i, [A9C]ext, unit inferred, read-out: K i (Hill fit of inhibition)) 20 ± 8 µM. Besides, the “δ i (fraction of Vm sensed at inhibitory site, Woodhull fit)” value (12.5 μM [Ca2+]i, extracellular A9C) is recorded as 0.62 ± 0.03. In addition, the “γ (slope factor, inhibition)” value (V m 20, 12.5 μM [Ca2+]i) is 0.86 ± 0.14 (n = 8); the “γ (slope factor, inhibition)” value (V m 40, 12.5 μM [Ca2+]i) is 0.85 ± 0.15 (n = 8); the “γ (slope factor, inhibition)” value (V m 60, 12.5 μM [Ca2+]i) is given as 0.8 ± 0.2 (n = 8); the “γ (slope factor, inhibition)” value (V m 80, 12.5 μM [Ca2+]i) was 0.8 ± 0.17 (n = 8); the “γ (slope factor, inhibition)” value (V m 100, 12.5 μM [Ca2+]i) was 0.8 ± 0.23 (n = 8); the “γ (slope factor, inhibition)” value (V m 120, 12.5 μM [Ca2+]i) is recorded as 0.71 ± 0.16 (n = 8). Besides, the “electric distance of inhibiting binding site (δ i)” value (Woodhull analysis, rounded) was ~ 0.6. Further, the “penetration into the pore length (voltage field) to reach inhibitory site” value (from δ i) is reported as “approximately 60%”. Also, the “γ from Hill fit of [A9C]ext-inhibition relationships” value (rounded in Discussion) was “≈ 1”.
